The term IC50 denotes the point on the concentration scale where inhibition reaches its midpoint.

Values after ≈ are worked out from the molar mass of the structure shown.

The nature of assay [1]: Displacement of methyl green from DNA. More on the design: species or system Homo sapiens.
Assay [2] has as its system Ehrlich. Nature of the assay: Antitumor activity against Ehrlich ascites carcinoma cells in mouse assessed as WBC count at 20 mg/kg after 14 days. Type of assay: functional.
The subject of assay [3] is Ehrlich. Nature of the assay: Antitumor activity against Ehrlich ascites carcinoma cells in mouse assessed as cell viability at 20 mg/kg after 5 days. Type of assay: functional.
For assay [4], the system named is Ehrlich. Nature of the assay: Antitumor activity against Ehrlich ascites carcinoma cells in mouse assessed as RBC count at 20 mg/kg after 14 days. Type of assay: functional.
Assay [5] concerns Ehrlich. Nature of the assay: Antitumor activity against Ehrlich ascites carcinoma cells in mouse assessed as haemoglobin level at 20 mg/kg after 14 days. Type of assay: functional.
The test system of assay [6] is Ehrlich. Nature of the assay: Antitumor activity against Ehrlich ascites carcinoma cells in mouse assessed as increase in life span at 20 mg/kg relative to control. The format is functional.

`COc1cccc2c1C(=O)c1c(O)c3c(c(O)c1C2=O)C[C@@](O)(C(C)=O)C[C@@H]3O[C@H]1C[C@H](N)[C@H](O)[C@H](C)O1` [DAUNORUBICIN]: in assay [1], the IC50 was determined as 28 µg/mL (≈ 53.1 µM).
Take `O=c1[nH]cc(F)c(=O)[nH]1` [FLUOROURACIL]: the Activity is on record as 14.7 /10^3mm3 in the assay on Ehrlich [2]; 83.6 10^6/100microL with Ehrlich [3]; 5.87 /10^6mm3 in the assay with Ehrlich [4]; 15.6% in the assay on Ehrlich [5]; 42.8% in the assay on Ehrlich [6].

For the origin of these results see ChEMBL document CHEMBL1139930, “Solvatochromism, DNA binding, antitumor activity and molecular modeling study of mixed-ligand copper(II) complexes containing the bulky ligand: bis[N-(p-tolyl)imino]acenaphthene” (Eur J Med Chem, 2007).
